Assay results as given in patent US12201624B2, “Compositions comprising mixtures of compounds and uses thereof” (Prostasis, LLC, priority 2021, dated 2025).

Experiment: Plasma and brain levels of the components by LC-MS/MS after 10 days of HFD containing the exemplary composition
Source text: In all studies described below, animals on the test diet received either a high fat diet (HFD) or a low-fat diet (LFD) ad libitum, with the diet further containing the components listed in Table 5.
Adult female wild-type C57/BL6 (Envigo) were used for the experiments. The animals were group housed in plastic cages (3-5 animals/cage) and had access to food and water ad libitum. Experiments were approved by the Institutional Animal Care and Use Committee of Brains On-Line LLC, South San Francisco, CA.
Mice were fed a HFD containing a composition comprising nicotinic acid, berberine, silibinin, lipoic acid and taurine (see Table 5) for 10 days. Subjects were euthanized, and plasma and brain samples were collected after 10 days feeding with a HFD containing the composition. The blood was collected into a vial already containing EDTA anticoagulant. The blood was centrifuged at 2500×g at 4° C. for 10 minutes. Supernatants were stored as plasma samples at −80° C. Immediately following blood collection, whole brains were rapidly extracted, placed into a pre-weighed tube, and weighed. Samples were snap frozen with liquid nitrogen.
Levels of nicotinic acid, berberine, silibinin (active form of Siliphos®), lipoic acid and taurine were quantified in plasma and brain samples by LC-MS/MS.

[1] = female, C57/BL6, mouse, in vivo
[2] = female, C57/BL6, mouse, in vivo, 10 days

Row | Basal Plasma (basal plasma level, mice, LC-MS/MS) | concentration at 10 days [1] [nM] | Cumulative Brain [2] [pmol/g] | Basal Brain (mouse, in vivo) | Cumulative Plasma [2] [nM] | Basal Brain [1] [nmol/g] | Basal Plasma (mouse, in vivo) | Compound | Cumulative Brain (brain after 10 days administration in HFD, mice) [pmol/g]
1 | <LLOQ | 68.2 | 21 | <LLOQ |  |  |  | O=C(O)CCCCC1CCSS1 (stereo not drawn) [Lipoic acid] | 
2 |  |  | 12.9 |  | 21 |  |  | COc1cc(C2Oc3cc([C@H]4Oc5cc(O)cc(O)c5C(=O)[C@@H]4O)ccc3OC2CO)ccc1O (stereo partly drawn) [Silibinin] | 
3 |  | 1360 | 12600 |  |  | 9.4 | <LLOQ | O=C(O)c1cccnc1 [Nicotinic acid] | 

Row | Compound | Basal Plasma (basal plasma level, mice, LC-MS/MS) | concentration at 10 days [1] [nM] | Cumulative Brain [2] [pmol/g] | Basal Brain (mouse, in vivo) | Cumulative Plasma [2] [nM] | Basal Brain [1] [nmol/g] | Basal Plasma (mouse, in vivo) | Cumulative Brain (brain after 10 days administration in HFD, mice) [pmol/g]
4 | COc1ccc2cc3[n+](cc2c1OC)CCc1cc2c(cc1-3)OCO2 [Berberine] |  | 20.5 |  |  |  |  |  | 265
